Data taken from patent US11382918B2, “Methods for treating Huntington's Disease” (PTC Therapeutics, Inc., priority 2017, dated 2022).
Where a name gives a salt, the structure may show the parent alone.

Test system: Endogenous Huntingtin Protein (HTT)
Assay: Endogenous Huntingtin Protein Assay (ELISA-based MSD electrochemiluminescence)
Type: cell-based
Conditions: Table 1
Procedure, shortened: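 HTT protein in lysates was measured by electrochemiluminescence on the MSD platform. Rabbit monoclonal 5656S followed by SULFO-TAG anti-rabbit antibody served for detection after overnight 4 °C capture with MAB2166 or the polyglutamine-directed MW1 antibody.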

SMILES	IC50 [nM]
O=c1cc(-c2cccnc2)nc2ccc(N3CCNCC3)cn12 [compound 228, 7-(piperazin-1-yl)-2-(pyridin-3-yl)-4H-pyrido[1,2-a]pyrimidin-4-one]	3000 to 33000
Cc1cc(-c2cc(=O)n3cc(N4CCN[C@H](C)C4)ccc3n2)cc2cn(C)nc12 [compound 741, 2-(2,7-dimethyl-2H-indazol-5-yl)-7-[(3R)-3-methylpiperazin-1-yl]-4H-pyrido[1,2-a]pyrimidin-4-one]	500 to 1000
Cc1nc2ccc(-c3cc(=O)n4cc(N5CCNCC5)ccc4n3)cc2o1 [compound 133, 2-(2-methyl-1,3-benzoxazol-6-yl)-7-(piperazin-1-yl)-4H-pyrido[1,2-a]pyrimidin-4-one]	500 to 1000
Cc1cn2cc(-c3cc(=O)n4cc(C5CCNCC5)nc(C)c4n3)cc(F)c2n1 [compound 875, 2-(8-fluoro-2-methylimidazo[1,2-a]pyridin-6-yl)-9-methyl-7-(piperidin-4-yl)-4H-pyrazino[1,2-a]pyrimidin-4-one hydrochloride (1:2)]	< 100
CCc1nc(C)cn2nc(-c3cc(=O)n4cc(N5C[C@@H](C)N[C@@H](C)C5)ccc4n3)cc12 [compound 633, 7-[(3R,5S)-3,5-dimethylpiperazin-1-yl]-2-(4-ethyl-6-methylpyrazolo[1,5-a]pyrazin-2-yl)-4H-pyrido[1,2-a]pyrimidin-4-one]	3000 to 33000
Cc1cn2nc(-c3cc(=O)n4cc(N5C[C@@H](C)N[C@@H](C)C5)ccc4n3)cc2c(C)n1 [compound 131, 7-[(3R,5S)-3,5-dimethylpiperazin-1-yl]-2-(4,6-dimethylpyrazolo[1,5-a]pyrazin-2-yl)-4H-pyrido[1,2-a]pyrimidin-4-one]	3000 to 33000
CCN1CCN(c2ccc3nc(-c4cc(C)c5c(cnn5C)c4)cc(=O)n3c2)CC1 [compound 845, 2-(1,7-dimethyl-1H-indazol-5-yl)-7-(4-ethylpiperazin-1-yl)-4H-pyrido[1,2-a]pyrimidin-4-one]	3000 to 33000
Cc1cc(N2CCN[C@@H](C)C2)cn2c(=O)cc(-c3ccc4nn(C)cc4c3)nc12 [compound 756, 9-methyl-2-(2-methyl-2H-indazol-5-yl)-7-[(3S)-3-methylpiperazin-1-yl]-4H-pyrido[1,2-a]pyrimidin-4-one]	100 to 500
CCc1nc(C)cn2nc(-c3cc(=O)n4cc(C5CCN(C)CC5)ncc4n3)cc12 [compound 654, 2-(4-ethyl-6-methylpyrazolo[1,5-a]pyrazin-2-yl)-7-(1-methylpiperidin-4-yl)-4H-pyrazino[1,2-a]pyrimidin-4-one]	< 100
CN1CC=C(c2ccc3nc(-c4ccc(N(C)C)nc4)cc(=O)n3c2)CC1 [compound 450, 2-[6-(dimethylamino)pyridin-3-yl]-7-(1-methyl-1,2,3,6-tetrahydropyridin-4-yl)-4H-pyrido[1,2-a]pyrimidin-4-one]	3000 to 33000
CCN1CC=C(c2ccc3nc(-c4ccn5nc(C)cc5c4)cc(=O)n3c2)CC1 [compound 858, 7-(1-ethyl-1,2,3,6-tetrahydropyridin-4-yl)-2-(2-methylpyrazolo[1,5-a]pyridin-5-yl)-4H-pyrido[1,2-a]pyrimidin-4-one]	1000 to 3000
Cc1cn2nc(-c3cc(=O)n4cc(N5CCNCC5)ccc4n3)cc2c(C)n1 [compound 120, 2-(4,6-dimethylpyrazolo[1,5-a]pyrazin-2-yl)-7-(piperazin-1-yl)-4H-pyrido[1,2-a]pyrimidin-4-one]	1000 to 3000
CN1CCN(c2cn3c(=O)cc(-c4ccc5nn(C)cc5c4)nc3cn2)CC1 [compound 589, 2-(2-methyl-2H-indazol-5-yl)-7-(4-methylpiperazin-1-yl)-4H-pyrazino[1,2-a]pyrimidin-4-one]	3000 to 33000
Cc1cn2nc(-c3cc(=O)n4cc(C5CCNCC5)cc(C)c4n3)cc2c(C)n1 [compound 671, 2-(4,6-dimethylpyrazolo[1,5-a]pyrazin-2-yl)-9-methyl-7-(piperidin-4-yl)-4H-pyrido[1,2-a]pyrimidin-4-one]	1000 to 3000
CCc1nc(C)cn2nc(-c3cc(=O)n4cc(C5CCN(CC)CC5)ncc4n3)cc12 [compound 655, 2-(4-ethyl-6-methylpyrazolo[1,5-a]pyrazin-2-yl)-7-(1-ethylpiperidin-4-yl)-4H-pyrazino[1,2-a]pyrimidin-4-one]	100 to 500
O=c1cc(-c2ccc(-c3ccnc(O)c3)cc2O)nc2ccc(C3=CCNCC3)cn12 [compound 850, 2-[2-hydroxy-4-(2-hydroxypyridin-4-yl)phenyl]-7-(1,2,3,6-tetrahydropyridin-4-yl)-4H-pyrido[1,2-a]pyrimidin-4-one trifluoroacetate (1:1)]	3000 to 33000
CCN1CCC(c2ccc3nc(-c4ccc5nn(C)cc5c4)cc(=O)n3c2)CC1 [compound 612, 7-(1-ethylpiperidin-4-yl)-2-(2-methyl-2H-indazol-5-yl)-4H-pyrido[1,2-a]pyrimidin-4-one]	1000 to 3000
COc1ncc(-c2cc(=O)n3cc(N4CCNCC4)ccc3n2)cc1Cl [compound 96, 2-(5-chloro-6-methoxypyridin-3-yl)-7-(piperazin-1-yl)-4H-pyrido[1,2-a]pyrimidin-4-one]	3000 to 33000

SMILES	IC50 [nM]
CN1CCN(c2ccc3nc(-c4ccc5c(cnn5C)c4)cc(=O)n3c2)CC1 [compound 489, 2-(1-methyl-1H-indazol-5-yl)-7-(4-methylpiperazin-1-yl)-4H-pyrido[1,2-a]pyrimidin-4-one]	3000 to 33000
Cc1cn2nc(-c3cc(=O)n4cc(N5CCN(C)CC5)ccc4n3)cc2c(C)n1 [compound 170, 2-(4,6-dimethylpyrazolo[1,5-a]pyrazin-2-yl)-7-(4-methylpiperazin-1-yl)-4H-pyrido[1,2-a]pyrimidin-4-one]	3000 to 33000
Cc1nc(-c2cc(=O)n3cc(C4=CCNCC4)ccc3n2)cc2cn(C)nc12 [compound 862, 2-(2,7-dimethyl-2H-pyrazolo[3,4-c]pyridin-5-yl)-7-(1,2,3,6-tetrahydropyridin-4-yl)-4H-pyrido[1,2-a]pyrimidin-4-one hydrochloride (1:2)]	1000 to 3000
Cc1cn2cc(-c3cc(=O)n4cc(C5=CCNCC5)ncc4n3)cc2c(C)n1 [compound 413, 2-(1,3-dimethylpyrrolo[1,2-a]pyrazin-7-yl)-7-(1,2,3,6-tetrahydropyridin-4-yl)-4H-pyrazino[1,2-a]pyrimidin-4-one hydrochloride (1:2)]	< 100
Cc1cc2cc(-c3cc(=O)n4cc(N5CCNCC5)ccc4n3)ccn2n1 [compound 859, 2-(2-methylpyrazolo[1,5-a]pyridin-5-yl)-7-(piperazin-1-yl)-4H-pyrido[1,2-a]pyrimidin-4-one hydrochloride (1:2)]	1000 to 3000
CCN1C[C@@H]2C[C@H]1CN2c1ccc2nc(-c3cc4c(C)nc(C)cn4n3)cc(=O)n2c1 [compound 401, 2-(4,6-dimethylpyrazolo[1,5-a]pyrazin-2-yl)-7-[(1S,4S)-5-ethyl-2,5-diazabicyclo[2.2.1]hept-2-yl]-4H-pyrido[1,2-a]pyrimidin-4-one]	3000 to 33000
Cc1cc2cc(-c3cc(=O)n4cc(C5=CCNCC5)ccc4n3)ccn2n1 [compound 857, 2-(2-methylpyrazolo[1,5-a]pyridin-5-yl)-7-(1,2,3,6-tetrahydropyridin-4-yl)-4H-pyrido[1,2-a]pyrimidin-4-one]	500 to 1000
Cc1cn2ccc(-c3cc(=O)n4cc(N5CCNCC5)ccc4n3)cc2n1 [compound 555, 2-(2-methylimidazo[1,2-a]pyridin-7-yl)-7-(piperazin-1-yl)-4H-pyrido[1,2-a]pyrimidin-4-one]	3000 to 33000
Cc1cn2nc(-c3cc(=O)n4cc(N5CCN6CCC[C@H]6C5)ccc4n3)cc2c(C)n1 [compound 336, 2-(4,6-dimethylpyrazolo[1,5-a]pyrazin-2-yl)-7-[(8aS)-hexahydropyrrolo[1,2-a]pyrazin-2(1H)-yl]-4H-pyrido[1,2-a]pyrimidin-4-one]	3000 to 33000
Cc1cn2cc(-c3cc(=O)n4cc(C5CCN(CCO)CC5)ncc4n3)cc(C)c2n1 [compound 594, 2-(2,8-dimethylimidazo[1,2-a]pyridin-6-yl)-7-[1-(2-hydroxyethyl)piperidin-4-yl]-4H-pyrazino[1,2-a]pyrimidin-4-one]	1000 to 3000
Cc1cn2nc(-c3cc(=O)n4cc(C5CCNCC5)nc(C)c4n3)ccc2n1 [compound 870, 9-methyl-2-(2-methylimidazo[1,2-b]pyridazin-6-yl)-7-(piperidin-4-yl)-4H-pyrazino[1,2-a]pyrimidin-4-one hydrochloride (1:2)]	< 100
CCN1CCN(c2ccc3nc(-c4cc(F)c5nc(C)oc5c4)cc(=O)n3c2)CC1 [compound 309, 7-(4-ethylpiperazin-1-yl)-2-(4-fluoro-2-methyl-1,3-benzoxazol-6-yl)-4H-pyrido[1,2-a]pyrimidin-4-one]	1000 to 3000
Cn1cc2cc(-c3cc(=O)n4cc(C5CCN(CCO)CC5)ncc4n3)ccc2n1 [compound 569, 7-[1-(2-hydroxyethyl)piperidin-4-yl]-2-(2-methyl-2H-indazol-5-yl)-4H-pyrazino[1,2-a]pyrimidin-4-one]	1000 to 3000
Cc1cn2cc(-c3ccc4nc(C5CCNCC5)cc(=O)n4c3)cc(F)c2n1 [compound 410, 7-(8-fluoro-2-methylimidazo[1,2-a]pyridin-6-yl)-2-(piperidin-4-yl)-4H-pyrido[1,2-a]pyrimidin-4-one]	500 to 1000
Cc1cn2nc(-c3cc(=O)n4cc(N5CCNCC5)ccc4n3)cc2c(N(C)C)n1 [compound 688, 2-[4-(dimethylamino)-6-methylpyrazolo[1,5-a]pyrazin-2-yl]-7-(piperazin-1-yl)-4H-pyrido[1,2-a]pyrimidin-4-one]	3000 to 33000
Cc1cn2cc(-c3cc(=O)n4cc(C5CCNCC5)ncc4n3)cc(C)c2n1 [compound 588, 2-(2,8-dimethylimidazo[1,2-a]pyridin-6-yl)-7-(piperidin-4-yl)-4H-pyrazino[1,2-a]pyrimidin-4-one]	500 to 1000
Cc1cn2nc(-c3cc(=O)n4cc(N5CCC(C)(N(C)C)CC5)ccc4n3)cc2c(C)n1 [compound 706, 7-[4-(dimethylamino)-4-methylpiperidin-1-yl]-2-(4,6-dimethylpyrazolo[1,5-a]pyrazin-2-yl)-4H-pyrido[1,2-a]pyrimidin-4-one]	3000 to 33000
